Tested on: SARS-CoV-2
Test: microbe, parasite or virus in culture
Details: Severe acute respiratory syndrome coronavirus 2, Vero C1008, 48 h

Structure (SMILES)	IC50	IC50 (read-out: pIC50 (converted))
O=C(O)CNC(=O)C(CS)Cc1ccccc1 (stereo not given) [THIORPHAN]	> 20 µM	> 20 µM
O=C(O)c1ccccc1S [THIOSALICYLIC ACID]	> 20 µM	> 20 µM
CNc1ccc(-c2ccc3cc(OC[C@H](O)CF)ccc3n2)cn1 [THK-5351]	> 20 µM	> 20 µM
CCCCCCCCCCCCCCCC[N+](C)(C)CCN(Cc1ccc(OC)cc1)c1ncccn1 [THONZONIUM]	> 20 µM	> 20 µM
COc1ccc(CN(CCN(C)C)c2ncccn2)cc1 [THONZYLAMINE]	> 20 µM	> 20 µM
C[C@@H](O)[C@H](N)C(=O)O [THREONINE]	> 20 µM	> 20 µM
Cc1ccc(C(C)C)c(O)c1 [THYMOL]	> 20 µM	> 20 µM
CC1=CC(=O)C(C(C)C)=CC1=O [THYMOQUINONE]	> 20 µM	> 20 µM
Cc1ccsc1C(=CCCN1CCC[C@@H](C(=O)O)C1)c1sccc1C [TIAGABINE]	> 20 µM	> 20 µM
Cc1csc(Cl)c1NC1=NCCN1 [TIAMENIDINE]	> 20 µM	> 20 µM
CCN(CC)CCNC(=O)c1cc(S(C)(=O)=O)ccc1OC [TIAPRIDE]	> 20 µM	> 20 µM
CC(C(=O)O)c1ccc(C(=O)c2ccccc2)s1 (stereo not given) [TIAPROFENIC ACID]	> 20 µM	> 20 µM
O=C(Cn1c(=O)sc2ccc(Cl)cc21)N1CCN(CCO)CC1 [TIARAMIDE]	> 20 µM	> 20 µM
CCOc1cc2cc(C(=O)O)sc2cc1OCC [TIBENELAST]	> 20 µM	> 20 µM
CCCSc1nc(N[C@@H]2C[C@H]2c2ccc(F)c(F)c2)c2nnn([C@@H]3C[C@H](OCCO)[C@@H](O)[C@H]3O)c2n1 [TICAGRELOR]	> 20 µM	> 20 µM
COc1cc(N)c(Cl)cc1C(=O)N[C@@H]1CCNC[C@@H]1OC [TICALOPRIDE]	> 20 µM	> 20 µM
O=c1[nH]sc2cc(Cl)ccc12 [TICLATONE]	> 20 µM	> 20 µM
Clc1ccccc1CN1CCc2sccc2C1 [TICLOPIDINE]	> 20 µM	> 20 µM
O=c1sn(-c2cccc3ccccc23)c(=O)n1Cc1ccccc1 [TIDEGLUSIB]	> 20 µM	> 20 µM
CN(C)c1cc(NC(=O)CNC(C)(C)C)c(O)c2c1C[C@H]1C[C@H]3[C@H](N(C)C)C(O)=C(C(N)=O)C(=O)[C@@]3(O)C(O)=C1C2=O [TIGECYCLINE]	> 20 µM	> 20 µM
CNC(=N)NCCC[C@H](N)C(=O)O [TILARGININE]	> 20 µM	> 20 µM
Cc1nc(C2CCCCC2)c(-c2ccc(S(N)(=O)=O)c(F)c2)o1 [TILMACOXIB]	> 20 µM	> 20 µM

Structure (SMILES)	IC50	IC50 (read-out: pIC50 (converted))
O=C(O)Cc1sc2nc3ccccc3n2c1-c1ccc(Cl)cc1 [TILOMISOLE]	> 20 µM	> 20 µM
CCN(CC)CCOc1ccc2c(c1)C(=O)c1cc(OCCN(CC)CC)ccc1-2 [TILORONE]	> 20 µM	> 20 µM
Cc1c(Cc2ccc3ccccc3n2)c2cc(F)ccc2n1CC(=O)O [TIMAPIPRANT]	> 20 µM	> 20 µM
COc1cc(C(=O)C(=O)N(C)[C@@H](Cc2ccc(Cl)cc2)C(=O)N(Cc2ccccc2)C(CCc2ccncc2)CCc2ccncc2)cc(OC)c1OC [TIMCODAR]	> 20 µM	> 20 µM
Cc1cc(/N=C(\Nc2nccs2)NC2CCCCC2)c2ccccc2n1 [TIMEGADINE]	> 20 µM	> 20 µM
O=C(CCCN1CCC(n2c(=S)[nH]c3ccccc32)CC1)c1ccc(F)cc1 [TIMIPERONE]	> 20 µM	> 20 µM
CC(C)(C)NC[C@H](O)COc1nsnc1N1CCOCC1 [TIMOLOL]	> 20 µM	> 20 µM
c1ccc2c(SC3=NCCN3)c[nH]c2c1 [TINAZOLINE]	> 20 µM	> 20 µM
CCS(=O)(=O)CCn1c([N+](=O)[O-])cnc1C [TINIDAZOLE]	> 20 µM	> 20 µM
CCOC(=O)c1c(N)sc2c1CCN(Cc1ccccc1)C2 [TINORIDINE]	> 20 µM	> 20 µM
Clc1ccc(C(Cn2ccnc2)OCc2ccsc2Cl)c(Cl)c1 (stereo not given) [TIOCONAZOLE]	> 20 µM	> 20 µM
CC(S)C(=O)NCC(=O)O (stereo not given) [TIOPRONIN]	> 20 µM	> 20 µM
C/N=C(/NC#N)NCCSCc1csc(NC(=N)N)n1 [TIOTIDINE]	> 20 µM	> 20 µM
C[N+]1(C)[C@@H]2C[C@@H](OC(=O)C(O)(c3cccs3)c3cccs3)C[C@H]1[C@@H]1O[C@@H]12 [TIOTROPIUM]	> 20 µM	> 20 µM
CCOC(=O)C(=O)Nc1nc(-c2ccc(OC)cc2)cs1 [TIOXAMAST]	> 20 µM	> 20 µM
O=c1oc2cc(O)ccc2s1 [TIOXOLONE]	> 20 µM	> 20 µM
Cc1cnc2c(c1)CCCC2C(N)=S (stereo not given) [TIQUINAMIDE]	> 20 µM	> 20 µM
CCOC(=O)Nc1ccc2c(c1)N(C(=O)CN(C)C)c1ccccc1CC2 [TIRACIZINE]	> 20 µM	> 20 µM
O=C(Cc1ccc(-c2ccc(OCCN3CCOCC3)cc2)cn1)NCc1ccccc1 [TIRBANIBULIN]	> 20 µM	> 20 µM
COc1cc2nccc(Oc3ccc(NC(=O)Nc4cc(C)on4)c(Cl)c3)c2cc1OC [TIVOZANIB]	> 20 µM	> 20 µM
COc1ccc2c(c1)C=C1Cn3c-2c(C2CCCCC2)c2ccc(cc23)C(=O)NS(=O)(=O)N(C)CCOCCN(C)C1=O [TMC-647055]	> 20 µM	> 20 µM
Cc1cccc(C)c1NC(=O)C(C)N (stereo not given) [TOCAINIDE]	> 20 µM	> 20 µM

Structure (SMILES)	IC50	IC50 (read-out: pIC50 (converted))
CCOC(=O)NNc1nncc2ccccc12 [TODRALAZINE]	> 20 µM	> 20 µM
C[C@@H]1CCN(C(=O)CC#N)C[C@@H]1N(C)c1ncnc2[nH]ccc12 [TOFACITINIB]	> 20 µM	> 20 µM
CNCCOC(c1ccccc1)c1ccccc1C (stereo not given) [TOFENACIN]	> 20 µM	> 20 µM
Cc1ccccc1OCC(O)CNCCOc1ccc(C(N)=O)cc1 (stereo not given) [TOLAMOLOL]	> 20 µM	> 20 µM
Cc1ccc(S(=O)(=O)NC(=O)NN2CCCCCC2)cc1 [TOLAZAMIDE]	> 20 µM	> 20 µM
c1ccc(CC2=NCCN2)cc1 [TOLAZOLINE]	> 20 µM	> 20 µM
CCCCNC(=O)NS(=O)(=O)c1ccc(C)cc1 [TOLBUTAMIDE]	> 20 µM	> 20 µM
Cc1ccc(C(=O)c2cc(O)c(O)c([N+](=O)[O-])c2)cc1 [TOLCAPONE]	> 20 µM	> 20 µM
Cc1cccc(N(C)C(=S)Oc2ccc3c(c2)C2CCC3C2)c1 (stereo not given) [TOLCICLATE]	> 20 µM	> 20 µM
Cc1c(Cl)cccc1Nc1ccccc1C(=O)O [TOLFENAMIC ACID]	> 20 µM	> 20 µM
Cc1cccc(Oc2cnc(=O)[nH]c2)c1 [TOLIMIDONE]	> 20 µM	> 20 µM
Cc1cccc(OCC(O)CNC(C)C)c1 (stereo not given) [TOLIPROLOL]	> 20 µM	> 20 µM
Cc1ccc(C(=O)c2ccc(CC(=O)O)n2C)cc1 [TOLMETIN]	> 20 µM	> 20 µM
Cc1cccc(N(C)C(=S)Oc2ccc3ccccc3c2)c1 [TOLNAFTATE]	> 20 µM	> 20 µM
Cc1ccc(NC2=NCCN2)c(Cl)c1 [TOLONIDINE]	> 20 µM	> 20 µM
Cc1cccc(N2CC(CO)OC2=O)c1 (stereo not given) [TOLOXATONE]	> 20 µM	> 20 µM
Cc1ccc(O)c([C@H](CCN(C(C)C)C(C)C)c2ccccc2)c1 [TOLTERODINE]	> 20 µM	> 20 µM
Cc1cc(-n2c(=O)[nH]c(=O)n(C)c2=O)ccc1Oc1ccc(SC(F)(F)F)cc1 [TOLTRAZURIL]	> 20 µM	> 20 µM
Cc1ccccc1C(=O)Nc1ccc(C(=O)N2CCCC(O)c3cc(Cl)ccc32)c(C)c1 (stereo not given) [TOLVAPTAN]	> 20 µM	> 20 µM
C[C@H]1CC[C@]2(NC1)O[C@H]1C[C@H]3[C@@H]4CC[C@H]5C[C@@H](O)CC[C@]5(C)[C@H]4CC[C@]3(C)[C@H]1[C@@H]2C [TOMATIDINE]	> 20 µM	> 20 µM
CN(C)c1cccc2c(S(=O)(=O)Nc3ccc(NC(=O)C(C)(C)CO)cc3)cccc12 [TOMEGLOVIR]	> 20 µM	> 20 µM
